Assay results: patent US20230330278A1, “METHODS FOR RADIOLABELLING PSMA BINDING LIGANDS AND THEIR KITS” (Novartis AG, priority 2020, published 2023)

Tests used:
[1] = cited from earlier work
[2] = Radiochemical purity and stability of 68GaPSMA-R2 by HPLC; format: physicochemical; details: for stability to the radiolytic degradation / radiochemical purity: up to 4 hours; for stability to the radiolytic degradation: without gentisic acid; for radiochemical purity: without the gentisic acid
Experimental: Radiochemical purity and identification of ^68GaPSMA-R2 by HPLC
Chromatographic conditions
The molecule was labelled with ^68Ga using E&Z generator with an activity in the range of […]. The labelling was performed at 95° C. for 7 minutes with Gallium buffer (pH 3.2-3.8). Experiments were performed by testing different amount of gentisic acid as radiolytic scavenger and peptide amounts (15 μg and 30 μg). In all tests 20 mg of mannitol were added as cake forming.

tumor models = details: current specific activity

Compound | pKa (20° C.) [1] | stability to the radiolytic degradation [2] | stability to the radiolytic degradation ([2]; listed as 68Ga-PSMA-R2) | radiochemical purity [2] | radiochemical purity ([2]; listed as 68Ga-PSMA-R2) | 68Ga free ([2]; when gentisic acid is not used in the formulation) | biodistribution profile (tumor models)
O=C(O)CCC(=O)O [Succinic acid] | 4.22 |  |  |  |  |  | 
O=C([O-])CN1CCN(CC(=O)[O-])CCN(CC(=O)NCCCCCC(=O)N(CCCC[C@H](NC(=O)N[C@@H](CCC(=O)O)C(=O)O)C(=O)O)Cc2ccc(Br)cc2)CCN(CC(=O)[O-])CC1.[68Ga+3] [68GaPSMA-R2] |  | good stability to the radiolytic degradation | intrinsic stability to the radiolytic degradation | higher than 92% | over 92% | under 2% | favourable biodistribution profile in tumor models (major uptake in tumor and kidneys, relatively low uptake in other organs)
